Source: PubChem BioAssay (NCI)
Where “and” joins values, the source holds several entries; their conditions need not be identical. Equal values may be shown once.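 Grown in 96-well plates, cells were treated for 48 hours with each compound at five concentrations. Insufficient inhibition: endpoint recorded as highest concentration tested. GI50 marks 50% less growth. Definition used: TGI = concentration required for complete inhibition of growth.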

What was measured:
Experiment in all cases: inhibition of tumour cell growth, NCI panel, 48 h
786-0 renal = tested on: 786-0 renal
A498 renal = tested on: A498 renal
A549 NSCLC = tested on: A549 NSCLC
ACHN renal = tested on: ACHN renal
CAKI-1 renal = tested on: CAKI-1 renal
CCRF-CEM leukemia = tested on: CCRF-CEM leukemia
COLO 205 colon = tested on: COLO 205 colon
DMS 114 small cell lung = tested on: DMS 114 small cell lung
EKVX NSCLC = tested on: EKVX NSCLC
HCC-2998 colon = tested on: HCC-2998 colon
HCT-116 colon = tested on: HCT-116 colon
HL-60(TB) leukemia = tested on: HL-60(TB) leukemia
HOP-18 NSCLC = tested on: HOP-18 NSCLC
HOP-92 NSCLC = tested on: HOP-92 NSCLC
HT29 colon = tested on: HT29 colon
IGROV1 ovarian = tested on: IGROV1 ovarian
K-562 leukemia = tested on: K-562 leukemia
KM12 colon = tested on: KM12 colon
KM20L2 colon = tested on: KM20L2 colon
LOX IMVI melanoma = tested on: LOX IMVI melanoma
LXFL 529 NSCLC = tested on: LXFL 529 NSCLC
M14 melanoma = tested on: M14 melanoma
M19-MEL melanoma = tested on: M19-MEL melanoma
MALME-3M melanoma = tested on: MALME-3M melanoma
MOLT-4 leukemia = tested on: MOLT-4 leukemia
NCI-H226 lung = tested on: NCI-H226 lung
NCI-H23 lung = tested on: NCI-H23 lung
NCI-H522 lung = tested on: NCI-H522 lung
OVCAR-3 ovarian = tested on: OVCAR-3 ovarian
OVCAR-4 ovarian = tested on: OVCAR-4 ovarian
OVCAR-5 ovarian = tested on: OVCAR-5 ovarian
OVCAR-8 ovarian = tested on: OVCAR-8 ovarian
RPMI-8226 leukemia = tested on: RPMI-8226 leukemia
SF-268 CNS = tested on: SF-268 CNS
SF-295 CNS = tested on: SF-295 CNS
SF-539 CNS = tested on: SF-539 CNS
SK-MEL-28 melanoma = tested on: SK-MEL-28 melanoma
SK-MEL-5 melanoma = tested on: SK-MEL-5 melanoma
SK-OV-3 ovarian = tested on: SK-OV-3 ovarian
SN12C renal = tested on: SN12C renal
SNB-19 CNS = tested on: SNB-19 CNS
SNB-75 CNS = tested on: SNB-75 CNS
SR leukemia = tested on: SR leukemia
SW-620 colon = tested on: SW-620 colon
TK-10 renal = tested on: TK-10 renal
U251 CNS = tested on: U251 CNS
UACC-257 melanoma = tested on: UACC-257 melanoma
UACC-62 melanoma = tested on: UACC-62 melanoma
UO-31 renal = tested on: UO-31 renal
XF 498 CNS = tested on: XF 498 CNS
DMS 273 small cell lung = tested on: DMS 273 small cell lung
RXF 393 renal = tested on: RXF 393 renal
SK-MEL-2 melanoma = tested on: SK-MEL-2 melanoma
SNB-78 CNS = tested on: SNB-78 CNS
DLD-1 colon = tested on: DLD-1 colon
HCT-15 colon = tested on: HCT-15 colon
HOP-62 NSCLC = tested on: HOP-62 NSCLC
NCI-H460 lung = tested on: NCI-H460 lung

What does the source list for `N#C[S-].[La+3].c1cnc2c(c1)ccc1cccnc12.c1cnc2c(c1)ccc1cccnc12.c1cnc2c(c1)ccc1cccnc12`?
TGI (786-0 renal): 11.7 µM; TGI (A498 renal): 13.5 µM; TGI (A549 NSCLC): 10.6 µM; TGI (ACHN renal): 12.9 µM; TGI (CAKI-1 renal): 12.7 µM; TGI (CCRF-CEM leukemia): 2.58 µM; TGI (COLO 205 colon): 16.1 µM; GI50 (DMS 114 small cell lung): 1.58 µM; TGI (DMS 114 small cell lung): 5.45 µM; TGI (EKVX NSCLC): 15.5 µM; TGI (HCC-2998 colon): 18.8 µM; TGI (HCT-116 colon): 10.2 µM; TGI (HL-60(TB) leukemia): 2.47 µM; GI50 (HOP-18 NSCLC): 0.952 µM; TGI (HOP-18 NSCLC): 9.46 µM; TGI (HOP-92 NSCLC): 18 µM; TGI (HT29 colon): 18 µM; TGI (IGROV1 ovarian): 19.2 µM; TGI (K-562 leukemia): > 100 µM; TGI (KM12 colon): 22.6 µM; GI50 (KM20L2 colon): 0.986 µM; TGI (KM20L2 colon): 16.4 µM; TGI (LOX IMVI melanoma): 13.3 µM; GI50 (LXFL 529 NSCLC): 1.83 µM; TGI (LXFL 529 NSCLC): 15.3 µM; TGI (M14 melanoma): 3.57 µM; GI50 (M19-MEL melanoma): 0.688 µM; TGI (M19-MEL melanoma): 3.69 µM; TGI (MALME-3M melanoma): 7.06 µM; TGI (MOLT-4 leukemia): 6.55 µM; TGI (NCI-H226 lung): 4.63 µM; TGI (NCI-H23 lung): 22.2 µM; TGI (NCI-H522 lung): 16 µM; TGI (OVCAR-3 ovarian): 19.2 µM; TGI (OVCAR-4 ovarian): 16.8 µM; TGI (OVCAR-5 ovarian): 12.4 µM; TGI (OVCAR-8 ovarian): 11.5 µM; TGI (RPMI-8226 leukemia): > 100 µM; TGI (SF-268 CNS): 18.9 µM; TGI (SF-295 CNS): 7.94 µM; TGI (SF-539 CNS): 14.1 µM; TGI (SK-MEL-28 melanoma): 33.9 µM; TGI (SK-MEL-5 melanoma): 12.7 µM; TGI (SK-OV-3 ovarian): 14.1 µM; TGI (SN12C renal): 16 µM; TGI (SNB-19 CNS): 20.9 µM; TGI (SNB-75 CNS): 29 µM; TGI (SR leukemia): 8.8 µM; TGI (SW-620 colon): 27.1 µM; TGI (TK-10 renal): 25.4 µM; TGI (U251 CNS): 11.9 µM; TGI (UACC-257 melanoma): 20.2 µM; TGI (UACC-62 melanoma): 4.8 µM; TGI (UO-31 renal): 10.5 µM; GI50 (XF 498 CNS): 4.03 µM; TGI (XF 498 CNS): 9.42 µM

For `COc1ccc(C2=C[C@]3(O)CCCN3C[C@@H]2c2ccc(OC)c(OC)c2)cc1`, which TGI (ACHN renal) is on record?
Its TGI is 0.00185 µM.

What about the TGI (CAKI-1 renal) of the same compound?
The TGI was 0.00162 µM.

And the TGI (COLO 205 colon)?
Its TGI is under 0.0001 µM.

What about the TGI (DMS 273 small cell lung) of the same compound?
The TGI was 0.000172 µM.

And the TGI (HCC-2998 colon)?
The TGI was 0.101 µM.

And the TGI (HCT-116 colon)?
Its TGI is 0.00112 µM.

And the TGI (HL-60(TB) leukemia)?
The TGI was under 0.0001 µM.

What about the TGI (HOP-18 NSCLC) of the same compound?
Its TGI is 0.000214 µM.

What about the TGI (HOP-92 NSCLC) of the same compound?
Its TGI is 0.000527 µM.

What about the TGI (M14 melanoma) of the same compound?
The TGI was under 0.0001 µM.

And the TGI (M19-MEL melanoma)?
The TGI was 0.000396 µM.

What about the TGI (MALME-3M melanoma) of the same compound?
The TGI was under 0.0001 µM.

And the TGI (NCI-H226 lung)?
Its TGI is under 0.0001 µM.

What about the TGI (NCI-H23 lung) of the same compound?
The TGI was 0.000105 µM.

And the TGI (NCI-H522 lung)?
Its TGI is under 0.0001 µM.

And the TGI (OVCAR-4 ovarian)?
The TGI was 0.0384 µM.

And the TGI (RPMI-8226 leukemia)?
The TGI was 13.9 µM.

And the TGI (RXF 393 renal)?
The TGI was 0.0223 µM.

What about the TGI (SK-MEL-2 melanoma) of the same compound?
Its TGI is 0.000164 µM.

What about the TGI (SK-MEL-28 melanoma) of the same compound?
Its TGI is 0.00216 µM and 0.0197 µM.

What about the TGI (SK-MEL-5 melanoma) of the same compound?
Its TGI is under 0.0001 µM.

What about the TGI (SN12C renal) of the same compound?
The TGI was over 100 µM.

What about the TGI (SNB-78 CNS) of the same compound?
The TGI was 0.0338 µM.

What about the TGI (SR leukemia) of the same compound?
The TGI was under 0.0001 µM.

What about the TGI (SW-620 colon) of the same compound?
Its TGI is 0.00183 µM.

What about the TGI (TK-10 renal) of the same compound?
Its TGI is 0.611 µM.

And the TGI (XF 498 CNS)?
Its TGI is 0.449 µM.

Which results are given for `CCC1C[N+]23CCc4c([nH]c5ccccc45)C2CC1CC3` (configuration not stated)?
TGI (ACHN renal): > 100 µM; TGI (CAKI-1 renal): > 100 µM; TGI (CCRF-CEM leukemia): > 100 µM; TGI (COLO 205 colon): > 100 µM; TGI (DLD-1 colon): > 100 µM; TGI (DMS 114 small cell lung): > 100 µM; TGI (DMS 273 small cell lung): > 100 µM; TGI (EKVX NSCLC): > 100 µM; TGI (HCC-2998 colon): > 100 µM; TGI (HCT-116 colon): > 100 µM; TGI (HCT-15 colon): > 100 µM; TGI (HOP-62 NSCLC): > 100 µM; TGI (HOP-92 NSCLC): > 100 µM; TGI (HT29 colon): > 100 µM; TGI (IGROV1 ovarian): > 100 µM; TGI (K-562 leukemia): > 100 µM; TGI (KM12 colon): > 100 µM; TGI (KM20L2 colon): > 100 µM; TGI (LOX IMVI melanoma): > 100 µM; TGI (LXFL 529 NSCLC): > 100 µM; TGI (M14 melanoma): > 100 µM; TGI (M19-MEL melanoma): > 100 µM; TGI (MALME-3M melanoma): 97.4 µM; TGI (MOLT-4 leukemia): 95.2 µM; TGI (NCI-H226 lung): > 100 µM; TGI (NCI-H23 lung): > 100 µM; TGI (NCI-H460 lung): > 100 µM; TGI (NCI-H522 lung): > 100 µM; TGI (OVCAR-3 ovarian): > 100 µM; TGI (OVCAR-4 ovarian): > 100 µM; TGI (OVCAR-5 ovarian): > 100 µM; TGI (OVCAR-8 ovarian): > 100 µM; TGI (RPMI-8226 leukemia): > 100 µM; TGI (RXF 393 renal): > 100 µM; TGI (SF-268 CNS): > 100 µM; TGI (SF-295 CNS): > 100 µM; TGI (SK-MEL-2 melanoma): > 100 µM; TGI (SK-MEL-28 melanoma): > 100 µM; TGI (SK-MEL-5 melanoma): 48.9 µM; TGI (SK-OV-3 ovarian): > 100 µM; TGI (SN12C renal): > 100 µM; TGI (SNB-75 CNS): > 100 µM; TGI (SR leukemia): > 100 µM; TGI (SW-620 colon): > 100 µM; TGI (TK-10 renal): > 100 µM; TGI (U251 CNS): > 100 µM; TGI (UACC-257 melanoma): > 100 µM; TGI (UACC-62 melanoma): > 100 µM; TGI (UO-31 renal): > 100 µM; TGI (XF 498 CNS): > 100 µM

Which results are given for `O=c1oc(-c2ccccc2)cn1-c1ccccc1`?
TGI (786-0 renal): > 100 µM; TGI (CCRF-CEM leukemia): > 100 µM; TGI (DLD-1 colon): > 100 µM; TGI (DMS 273 small cell lung): > 100 µM; TGI (HCC-2998 colon): > 100 µM; TGI (HCT-116 colon): > 100 µM; TGI (HL-60(TB) leukemia): > 100 µM; TGI (HOP-18 NSCLC): > 100 µM; TGI (HOP-62 NSCLC): > 100 µM; TGI (K-562 leukemia): > 100 µM; TGI (KM20L2 colon): > 100 µM; TGI (LOX IMVI melanoma): > 100 µM; TGI (LXFL 529 NSCLC): > 100 µM; TGI (M14 melanoma): > 100 µM; TGI (MOLT-4 leukemia): > 100 µM; TGI (NCI-H226 lung): > 100 µM; TGI (NCI-H23 lung): > 100 µM; TGI (NCI-H460 lung): > 100 µM; TGI (NCI-H522 lung): > 100 µM; TGI (RPMI-8226 leukemia): > 100 µM; TGI (RXF 393 renal): > 100 µM; TGI (SF-539 CNS): > 100 µM; TGI (SK-MEL-28 melanoma): > 100 µM; TGI (SN12C renal): > 100 µM; TGI (SNB-19 CNS): > 100 µM; TGI (SNB-75 CNS): > 100 µM; TGI (SNB-78 CNS): > 100 µM; TGI (U251 CNS): > 100 µM; TGI (XF 498 CNS): > 100 µM
